Here are results for 42 compounds from patent US12162858B2, “Quinoline derivatives as inhibitors of AXL/MER RTK and CSF1R” (QURIENT CO., LTD., priority 2018, dated 2024).

For experiment [1], the system named is CSF1R (M-NFS-60 cells). Put plainly: Cell Titer-Glo viability assay using M-NFS-60 cells. Format: cell-based. To be noted: Mus musculus, read-out: Cellular CSF1R activity by M-NFS-60 viability assay (IC50 activity range). The gist of the method:
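M-NFS-60 cells grown with 62 ng/ml recombinant human M-CSF, seeded at 2×10^5 cells/well and incubated at 37 °C/5% CO2. Compounds given as 3-fold serial dilutions (10 doses); viability read by CellTiter-Glo luminescence, sigmoidal dose-response fit.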
(ATP-based viability assays read luminescence as a measure of living cells.)

For experiment [2], the target named is CSF1R (Homo sapiens, UniProt P07333). Put plainly: Cellular CSF1R inhibition ELISA (p-CSF1R, M-CSF-induced) using THP-1 cells. On the set-up: THP-1 cells act as a model for human monocytes; endogenous in cells; host or cells: THP-1. The experiment is classed as cell-based. A digest of the protocol:
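THP-1 cells (2×10^5/well, RPMI/10% FBS) were treated with compound, 10 doses in 3-fold steps, for 24 h at 37 °C in 0.2% DMSO final. They were then stimulated 5 min with human M-CSF (10 ng/ml final) and lysed. p-CSF1R was read by sandwich ELISA (HRP/TMB), with a sigmoidal dose-response fit.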
(In general: ELISA stands for enzyme-linked immunosorbent assay.)

pIC50: −log10 of the molar value.

Sequence of CSF1R (P07333 20-972): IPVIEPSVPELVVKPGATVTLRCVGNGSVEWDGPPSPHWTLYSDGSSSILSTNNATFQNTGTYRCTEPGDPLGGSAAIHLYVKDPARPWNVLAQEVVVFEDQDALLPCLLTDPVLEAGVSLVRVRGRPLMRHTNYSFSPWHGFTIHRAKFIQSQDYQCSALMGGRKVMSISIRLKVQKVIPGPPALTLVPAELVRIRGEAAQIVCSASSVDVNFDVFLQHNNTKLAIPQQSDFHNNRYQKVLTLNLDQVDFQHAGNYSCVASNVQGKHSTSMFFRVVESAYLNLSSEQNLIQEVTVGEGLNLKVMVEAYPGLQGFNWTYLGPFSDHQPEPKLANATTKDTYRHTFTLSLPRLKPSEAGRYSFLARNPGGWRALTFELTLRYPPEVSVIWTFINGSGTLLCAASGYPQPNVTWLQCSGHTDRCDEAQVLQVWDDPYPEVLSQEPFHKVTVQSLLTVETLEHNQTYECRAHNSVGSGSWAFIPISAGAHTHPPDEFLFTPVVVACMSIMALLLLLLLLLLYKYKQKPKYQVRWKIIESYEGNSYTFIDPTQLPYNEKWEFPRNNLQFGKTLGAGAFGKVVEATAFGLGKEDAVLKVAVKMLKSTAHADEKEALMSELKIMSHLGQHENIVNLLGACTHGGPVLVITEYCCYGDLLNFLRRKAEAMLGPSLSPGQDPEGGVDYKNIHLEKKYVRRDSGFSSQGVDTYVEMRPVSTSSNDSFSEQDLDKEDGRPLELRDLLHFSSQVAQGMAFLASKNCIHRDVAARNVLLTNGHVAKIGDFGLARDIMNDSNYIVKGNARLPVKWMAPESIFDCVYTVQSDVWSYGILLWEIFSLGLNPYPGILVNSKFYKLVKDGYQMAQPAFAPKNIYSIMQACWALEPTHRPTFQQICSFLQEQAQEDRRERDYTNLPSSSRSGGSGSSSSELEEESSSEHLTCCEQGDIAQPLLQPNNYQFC

On to `COc1cc2nccc(Oc3ccc(NC(=O)c4nn(CC(C)(F)F)cc4OCC(F)(F)F)nc3)c2cc1OC` [Compound 64], for which the pIC50 – broadly, −log10 of the IC50, conventionally taken in molar units – in experiment [1] was 5.00 to 6.00; in experiment [2] it was greater than 6.30.

`COc1cc2nccc(Oc3ccc(NC(=O)c4nn(CC(C)C)cc4OCC(F)(F)F)cc3C)c2cc1OC` [Compound 58]: the pIC50 in experiment [1] was 5.00 to 6.00; in experiment [2], no more than 6.00.

With `COc1cc2nccc(Oc3ccc(NC(=O)c4nn(C)cc4OCC(F)(F)F)cc3C)c2cc1OC` [Compound 37], the pIC50 in experiment [1] was greater than 6.00; in experiment [2], greater than 6.30.

Turning to `COc1cc2nccc(Oc3ccc(NC(=O)c4nn(C5CC5)c(C(C)=O)c4OCC(F)(F)F)nc3)c2cc1OC` [Compound 3], the pIC50 in experiment [1] is no more than 5.00; in experiment [2] it was greater than 6.30.

With `CCCn1cc(OCC(F)(F)F)c(C(=O)Nc2ccc(Oc3ccnc4cc(OC)c(OC)cc34)c(F)c2)n1` [Compound 25], the negative-log IC50 (pIC50) was 5.00 to 6.00 in experiment [1] and 6.00 to 6.30 in experiment [2].

Regarding `COc1cc2nccc(Oc3ccc(NC(=O)c4nn(CCO)cc4OCC(F)(F)F)c(F)c3)c2cc1OC` [Compound 46], the pIC50 in experiment [1] was 5.00 to 6.00; in experiment [2] it was 6.00 to 6.30.

Take `COc1cc2nccc(Oc3ccc(NC(=O)c4nn(C)cc4OCC(F)(F)F)nc3)c2cc1OC` [Compound 33]: the pIC50 in experiment [1] is greater than 6.00; in experiment [2] it was greater than 6.30.

Regarding `COCCn1cc(OCC(F)(F)F)c(C(=O)Nc2ccc(Oc3ccnc4cc(OC)c(OC)cc34)c(F)c2)n1` [Compound 54], the negative logarithm of the IC50 (pIC50) in experiment [1] is greater than 6.00; in experiment [2] it was no more than 6.00.

`CCCCn1cc(OCC(F)(F)F)c(C(=O)Nc2ccc(Oc3ccnc4cc(OC)c(OC)cc34)cn2)n1` [Compound 36]: the pIC50 was greater than 6.00 in experiment [1] and greater than 6.30 in experiment [2].

`COc1cc2nccc(Oc3ccc(NC(=O)c4nn(CCOC5CCC5)cc4OCC(F)(F)F)nc3)c2cc1OC` [Compound 65]: the pIC50 in experiment [1] is 5.00 to 6.00; in experiment [2], greater than 6.30.

As to `COc1cc2nccc(Oc3ccc(NC(=O)c4nn(C5COC5)cc4OCC(F)(F)F)nc3)c2cc1OC` [Compound 66], the results for the pIC50 in experiment [1] and in experiment [2] were 5.00 to 6.00 and greater than 6.30, respectively.

For the compound `CCCn1cc(NCC(F)(F)F)c(C(=O)Nc2ccc(Oc3ccnc4cc(OC)c(OC)cc34)cn2)n1` [Compound 23], the pIC50 is greater than 6.00 in experiment [1] and greater than 6.30 in experiment [2].

For the compound `COc1cc2nccc(Oc3ccc(NC(=O)c4nn(CC(C)=O)cc4OCC(F)(F)F)nc3)c2cc1OC` [Compound 19], the pIC50 is greater than 6.00 in experiment [1] and greater than 6.30 in experiment [2].

In the case of `COCCn1cc(OCC(F)(F)F)c(C(=O)Nc2ccc(Oc3ccnc4cc(OC)c(OC)cc34)cc2)n1` [Compound 61], the figures for the pIC50 in experiment [1] and in experiment [2] were 5.00 to 6.00 and no more than 6.00, respectively.

Take `COc1cc2nccc(Oc3ccc(NC(=O)c4nn(C5CCCC5)cc4OCC(F)(F)F)cc3C)c2cc1OC` [Compound 57]: the pIC50 in experiment [1] was greater than 6.00; in experiment [2] it was 6.00 to 6.30.

For `COc1cc2nccc(Oc3ccc(NC(=O)c4nn(CC5CCN(C)C5)cc4OCC(F)(F)F)nc3)c2cc1OC` (stereo not drawn) [Compound 169], the pIC50 is greater than 6.00 in experiment [1] and greater than 6.30 in experiment [2].

For the compound `CCCn1cc(OCCC(F)(F)F)c(C(=O)Nc2ccc(Oc3ccnc4cc(OC)c(OC)cc34)cn2)n1` [Compound 31], the values for the pIC50 in experiment [1] and in experiment [2] were greater than 6.00 and greater than 6.30, respectively.

As for `COc1cc2nccc(Oc3ccc(NC(=O)c4nn(C5CCNC5)cc4OCC(F)(F)F)c(F)c3)c2cc1OC` (stereo not drawn) [Compound 74], the negative logarithm of the IC50 (pIC50) in experiment [1] is 5.00 to 6.00; in experiment [2], no more than 6.00.

For the compound `COc1cc2nccc(Oc3ccc(NC(=O)c4nn(CC5CCOC5)cc4OCC(F)(F)F)nc3)c2cc1OC` (stereo not drawn) [Compound 44], the pIC50 is greater than 6.00 in experiment [1] and greater than 6.30 in experiment [2].

On to `COc1cc2nccc(Oc3ccc(NC(=O)c4nn(CCC#N)cc4OCC(F)(F)F)nc3)c2cc1OC` [Compound 39], for which the pIC50 in experiment [1] was greater than 6.00; in experiment [2], greater than 6.30.

On to `COc1cc2nccc(Oc3ccc(NC(=O)c4nn(CC5CNC5)cc4OCC(F)(F)F)nc3)c2cc1OC` [Compound 73], for which the pIC50 is 5.00 to 6.00 in experiment [1] and greater than 6.30 in experiment [2].

With `COc1cc2nccc(Oc3ccc(NC(=O)c4nn(C5CC5)cc4OCCC(F)(F)F)nn3)c2cc1OC` [Compound 173], the results for the pIC50 in experiment [1] and in experiment [2] were 5.00 to 6.00 and no more than 6.00, respectively.

Take `CCCn1cc(OCC(F)(F)F)c(C(=O)Nc2ccc(Oc3ccnc4cc(OC)c(OC)cc34)cc2)n1` [Compound 38]: the pIC50 is greater than 6.00 in experiment [1] and 6.00 to 6.30 in experiment [2].

Consider `CCCn1cc(OCCC(O)CO)c(C(=O)Nc2ccc(Oc3ccnc4cc(OC)c(OC)cc34)cn2)n1` (stereo not drawn) [Compound 15], for which the pIC50 was 5.00 to 6.00 in experiment [1] and no more than 6.00 in experiment [2].

In the case of `COc1cc2nccc(Oc3ccc(NC(=O)c4nn(CC(C)C)cc4OCC(F)(F)F)nc3)c2cc1OC` [Compound 21], the figures for the pIC50 in experiment [1] and in experiment [2] were greater than 6.00 and greater than 6.30, respectively.

`COc1cc2nccc(Oc3ccc(NC(=O)c4cc(C5CC5)cnc4OCC(F)(F)F)nc3)c2cc1OC` [Compound 178]: the pIC50 in experiment [1] is greater than 6.00; in experiment [2] it was greater than 6.30.

For the compound `COc1cc2nccc(Oc3ccc(NC(=O)c4nn(C)cc4OCC(F)(F)F)cc3F)c2cc1OC` [Compound 50], the pIC50 in experiment [1] is 5.00 to 6.00; in experiment [2], 6.00 to 6.30.

`COc1cc2nccc(Oc3ccc(NC(=O)c4nn(CC(C)N)cc4OCC(F)(F)F)nc3)c2cc1OC` (stereo not drawn) [Compound 63]: the pIC50 is 5.00 to 6.00 in experiment [1] and 6.00 to 6.30 in experiment [2].

Consider `COc1cc2nccc(Oc3ccc(NC(=O)c4nn(C[C@@H](C)O)cc4OCC(F)(F)F)nc3)c2cc1OC` [Compound 29], for which the pIC50 in experiment [1] was greater than 6.00; in experiment [2], greater than 6.30.

With `COc1cc2nccc(Oc3ccc(NC(=O)c4nn(C5CCOC5)cc4OCC(F)(F)F)cc3F)c2cc1OC` (stereo not drawn) [Compound 55], the pIC50 was 5.00 to 6.00 in experiment [1] and no more than 6.00 in experiment [2].

As for `CCCn1cc(OCC(F)(F)F)c(C(=O)Nc2ccc(Oc3ccnc4cc(OC)c(OC)cc34)cc2F)n1` [Compound 28], the figures for the pIC50 in experiment [1] and in experiment [2] were 5.00 to 6.00 and 6.00 to 6.30, respectively.

For `COc1cc2nccc(Oc3ccc(NC(=O)c4nn(CC(C)O)cc4OCC(F)(F)F)nc3)c2cc1OC` (stereo not drawn) [Compound 17], the pIC50 is greater than 6.00 in experiment [1] and greater than 6.30 in experiment [2].

Regarding `COc1cc2nccc(Oc3ccc(NC(=O)c4nn(CC5CCNC5)cc4OCC(F)(F)F)nc3)c2cc1OC` (stereo not drawn) [Compound 72], the figures for the negative logarithm of the IC50 (pIC50) in experiment [1] and in experiment [2] were 5.00 to 6.00 and greater than 6.30, respectively.

On to `COc1cc2nccc(Oc3ccc(NC(=O)c4nn(C5CCCC5)cc4OCC(F)(F)F)nc3)c2cc1OC` [Compound 40], for which the pIC50 in experiment [1] was greater than 6.00; in experiment [2] it was greater than 6.30.

In the case of `COc1cc2nccc(Oc3ccc(NC(=O)c4sc(C5CC5)cc4OCC(F)(F)F)nc3)c2cc1OC` [Compound 179], the pIC50 in experiment [1] is greater than 6.00; in experiment [2], greater than 6.30.

For `COc1cc2nccc(Oc3ccc(NC(=O)c4nn(C5CCCC5)cc4OCC(F)(F)F)cc3F)c2cc1OC` [Compound 52], the values for the pIC50 in experiment [1] and in experiment [2] were greater than 6.00 and no more than 6.00, respectively.

For the compound `COc1cc2nccc(Oc3ccc(NC(=O)c4nn(C5CC5)cc4OCCC(F)(F)F)nc3)c2cc1OC` [Compound 170], the pIC50 was greater than 6.00 in experiment [1] and greater than 6.30 in experiment [2].

Regarding `COc1cc2nccc(Oc3ccc(NC(=O)c4nn(CCNC5CC5)cc4OCC(F)(F)F)nc3)c2cc1OC` [Compound 168], the figures for the pIC50 in experiment [1] and in experiment [2] were greater than 6.00 and greater than 6.30, respectively.

Take `COc1cc2nccc(Oc3ccc(NC(=O)c4nn(C5CCC5)cc4OCC(F)(F)F)nc3)c2cc1OC` [Compound 24]: the pIC50 was greater than 6.00 in experiment [1] and greater than 6.30 in experiment [2].

Take `CCCn1cc(N(C)CC2CCOCC2)c(C(=O)Nc2ccc(Oc3ccnc4cc(OC)c(OC)cc34)cn2)n1` [Compound 34]: the pIC50 in experiment [1] is 5.00 to 6.00; in experiment [2] it was no more than 6.00.

`COc1cc2nccc(Oc3ccc(NC(=O)c4nn(CCO)cc4OCC(F)(F)F)cc3C)c2cc1OC` [Compound 56]: the figures for the negative logarithm of the IC50 (pIC50) in experiment [1] and in experiment [2] were greater than 6.00 and greater than 6.30, respectively.

Turning to `COc1cc2nccc(Oc3ccc(NC(=O)c4nn(C(C)C)c(C)c4OCC(F)(F)F)nc3)c2cc1OC` [Compound 2], the pIC50 in experiment [1] is greater than 6.00; in experiment [2], greater than 6.30.
